Experimental findings from US20080262044A1, “Pesticidal Mixtures” (Syngenta Participations AG, priority 2005, published 2008) are described below.

Test [1] relates to Aphis craccivora (nymphs). As to the kind of experiment: Action against Aphis craccivora (nymphs), bean leaf disks. As to conditions: foliar, 96 h, Table B4, Pyroquilon 1 ppm, WP 25, nymphs on bean leaf disks, after four days. The test is classed as in vivo. Here is the method:
Fourteen day old bean plants (Vicia faba var. Wittkiens) were sprayed with 60 ml sample solution. The following day 3.5 cm leaf disks were cut and placed in petri dishes containing 2 ml agar (2%) and 5-10 adult aphids placed on the leaves. Petri dishes were covered with gauze and closed with a lid and placed up-side down. The following day all adult aphids were removed and only nymphs left on the leaf at a temperature of 20° C., 60% relative humidity and 16L:8D conditions. Assessment of dead and alife aphids performed after four days. (3 replicates per treatment).

The next test has as its system Spodoptera littoralis L2. The test can be described thus: Action against Spodoptera littoralis L2 (sprayed cotton leaves, petri dish). The test is classed as in vivo. The note with it: 96 h. As for the experimental part: The following day leaves were placed in petri dishes containing a moist filter paper and 10 L2 larvae placed on the leaves. Petri dishes were covered with gauze and closed with a lid and left at a temperature of 25° C., 40-60% relative humidity and 16L:8D conditions. Assessment of dead and alife larvae was performed after four days. (30 insects assessed per treatment).

With `O=C1CCc2cccc3c2N1CC3` [Pyroquilon, pyroquilon], the mortality (commonly the percentage killed) at 1 ppm in test [1] is 3.3%; in the test on Spodoptera littoralis L2 (Table B1, Pyroquilon 1 ppm, WP 25, L2 larvae on cotton leaves, after four days), 6.7%. The same compound had a mortality at 10 ppm with Spodoptera littoralis L2 (Table B3, Pyroquilon 10 ppm, WP 25, after four days) of 6.7%.
